Test results published in PubChem BioAssay AID260 (DTP/NCI, 2004).
Where “and” joins values, the source holds several entries; their conditions need not be identical. Equal entries are not always repeated. Inconclusive results and toxic doses are left out.

Tested on: CD2F1 mice, intracerebral L1210 leukemia, survival T/C
Assay: NCI In Vivo Anticancer Drug Screen. Data for tumor model L1210 Leukemia (intracerebral) in CD2F1 (CDF1) mice
Settings: higher = longer survival
Procedure: The antitumor activity of compounds was measured in mice bearing transplantable tumors. Survival or tumor size were measured and the results are expressed as the measurement made in the treated group (T) divided by the measurement made in the vehicle treated control group (C). The tumor model used in this assay is L1210 Leukemia (intracerebral) in CD2F1 (CDF1) mice

[1] = endpoint: median survival time, dose: 64.0 mg/kg/injection, schedule: Q01DX005 (ip), vehicle: saline with Tween-80
[2] = endpoint: median survival time, dose: 128.0 mg/kg/injection, schedule: Q01DX005 (ip), vehicle: saline

SMILES: COc1cc2c(c3c1c(=O)c1ccccc1n3C)C=CC(C)(C)O2
- T/C (endpoint: median survival time, dose: 128.0 mg/kg/injection, schedule: Q01DX005 (ip), vehicle: Klucel (hydroxypropylcellulose) (HPC)): 108 % of control

SMILES: Nc1nncs1
- T/C (endpoint: median survival time, dose: 7.5 mg/kg/injection, schedule: Q01DX009 (ip), vehicle: Klucel (hydroxypropylcellulose) (HPC)): 113 % of control
- T/C (endpoint: median survival time, dose: 60.0 mg/kg/injection, schedule: Q01DX009 (ip), vehicle: Klucel (hydroxypropylcellulose) (HPC)): 112 % of control
- T/C [1]: 118 % of control and 121 % of control and 116 % of control

SMILES: CC(=O)OC1(C)CC(C)C(=O)C(C(O)CC2CC(=O)NC(=O)C2)C1 (stereo not given)
- T/C (endpoint: mean survival time, dose: 0.04 mg/kg/injection, schedule: Q01DX009 (ip), vehicle: saline): 101 % of control
- T/C (endpoint: mean survival time, dose: 0.06 mg/kg/injection, schedule: Q01DX009 (ip), vehicle: saline): 101 % of control
- T/C (endpoint: mean survival time, dose: 0.13 mg/kg/injection, schedule: Q01DX009 (ip), vehicle: saline): 108 % of control
- T/C (endpoint: mean survival time, dose: 0.25 mg/kg/injection, schedule: Q01DX009 (ip), vehicle: saline): 111 % of control
- T/C (endpoint: mean survival time, dose: 0.5 mg/kg/injection, schedule: Q01DX009 (ip), vehicle: saline): 105 % of control

SMILES: CC(C)(CO)COC(=O)NC1=C(N2CC2)C(=O)C(NC(=O)OCC(C)(C)CO)=C(N2CC2)C1=O
- T/C (endpoint: median survival time, dose: 0.75 mg/kg/injection, schedule: Q01DX009 (ip), vehicle: water): 102 % of control and 105 % of control
- T/C (endpoint: median survival time, dose: 1.5 mg/kg/injection, schedule: Q01DX009 (ip), vehicle: water): 103 % of control and 108 % of control
- T/C (endpoint: median survival time, dose: 3.0 mg/kg/injection, schedule: Q01DX009 (ip), vehicle: water): 105 % of control and 110 % of control
- T/C (endpoint: median survival time, dose: 6.0 mg/kg/injection, schedule: Q01DX009 (ip), vehicle: water): 110 % of control and 113 % of control
- T/C (endpoint: median survival time, dose: 12.0 mg/kg/injection, schedule: Q01DX009 (ip), vehicle: water): 119 % of control and 113 % of control

SMILES: Nc1nc(=S)c2[nH]cnc2[nH]1
- T/C (endpoint: mean survival time, dose: 0.13 mg/kg/injection, schedule: Q01DX009 (ip), vehicle: other): 102 % of control
- T/C (endpoint: mean survival time, dose: 0.25 mg/kg/injection, schedule: Q01DX009 (ip), vehicle: other): 111 % of control
- T/C (endpoint: mean survival time, dose: 0.5 mg/kg/injection, schedule: Q01DX009 (ip), vehicle: other): 108 % of control
- T/C (endpoint: mean survival time, dose: 1.0 mg/kg/injection, schedule: Q01DX009 (ip), vehicle: other): 114 % of control

SMILES: Nc1n[nH]c(N)n1
- T/C (endpoint: mean survival time, dose: 512.0 mg/kg/injection, schedule: Q12HX018 (ip), vehicle: saline): 96 % of control
- T/C (endpoint: mean survival time, dose: 1024.0 mg/kg/injection, schedule: Q12HX018 (ip), vehicle: saline): 107 % of control
- T/C (endpoint: mean survival time, dose: 2048.0 mg/kg/injection, schedule: Q12HX018 (ip), vehicle: saline): 110 % of control
- T/C [2]: 107 % of control and 116 % of control
- T/C (endpoint: median survival time, dose: 256.0 mg/kg/injection, schedule: Q01DX005 (ip), vehicle: saline): 108 % of control and 111 % of control
- T/C (endpoint: median survival time, dose: 512.0 mg/kg/injection, schedule: Q01DX005 (ip), vehicle: saline): 120 % of control and 115 % of control
- T/C (endpoint: median survival time, dose: 1024.0 mg/kg/injection, schedule: Q01DX005 (ip), vehicle: saline): 119 % of control

SMILES: O=C1C(=O)c2ccccc2C(O)=C1CC=C(Cl)Cl
- T/C (endpoint: median survival time, dose: 10.0 mg/kg/injection, schedule: Q01DX005 (ip), vehicle: Klucel (hydroxypropylcellulose) (HPC)): 89 % of control and 96 % of control
- T/C (endpoint: median survival time, dose: 20.0 mg/kg/injection, schedule: Q01DX005 (ip), vehicle: Klucel (hydroxypropylcellulose) (HPC)): 95 % of control and 96 % of control
- T/C (endpoint: median survival time, dose: 40.0 mg/kg/injection, schedule: Q01DX005 (ip), vehicle: Klucel (hydroxypropylcellulose) (HPC)): 101 % of control and 109 % of control
- T/C (endpoint: median survival time, dose: 80.0 mg/kg/injection, schedule: Q01DX005 (ip), vehicle: Klucel (hydroxypropylcellulose) (HPC)): 109 % of control and 117 % of control

SMILES: CN(N=O)C(N)=O
- T/C (endpoint: median survival time, dose: 0.5 mg/kg/injection, schedule: Q01DX009 (ip), vehicle: saline + alcohol): 98 % of control
- T/C (endpoint: median survival time, dose: 1.0 mg/kg/injection, schedule: Q01DX009 (ip), vehicle: saline + alcohol): 105 % of control
- T/C (endpoint: median survival time, dose: 2.0 mg/kg/injection, schedule: Q01DX009 (ip), vehicle: saline + alcohol): 105 % of control
- T/C (endpoint: median survival time, dose: 2.5 mg/kg/injection, schedule: Q01DX001 (ip), vehicle: saline): 89 % of control
- T/C (endpoint: median survival time, dose: 4.0 mg/kg/injection, schedule: Q01DX009 (ip), vehicle: saline + alcohol): 114 % of control
- T/C (endpoint: median survival time, dose: 5.0 mg/kg/injection, schedule: Q01DX001 (ip), vehicle: saline): 92 % of control
- T/C (endpoint: median survival time, dose: 10.0 mg/kg/injection, schedule: Q01DX001 (ip), vehicle: saline + alcohol): 102 % of control
- T/C (endpoint: median survival time, dose: 10.0 mg/kg/injection, schedule: Q01DX001 (ip), vehicle: saline): 94 % of control
- T/C (endpoint: median survival time, dose: 16.0 mg/kg/injection, schedule: Q01DX009 (ip), vehicle: saline + alcohol): 196 % of control
- T/C (endpoint: median survival time, dose: 20.0 mg/kg/injection, schedule: Q01DX001 (ip), vehicle: saline + alcohol): 105 % of control
- T/C (endpoint: median survival time, dose: 20.0 mg/kg/injection, schedule: Q01DX001 (ip), vehicle: saline): 103 % of control
- T/C (endpoint: median survival time, dose: 40.0 mg/kg/injection, schedule: Q01DX001 (ip), vehicle: saline + alcohol): 107 % of control
- T/C (endpoint: median survival time, dose: 40.0 mg/kg/injection, schedule: Q01DX001 (ip), vehicle: saline): 121 % of control
- T/C (endpoint: median survival time, dose: 80.0 mg/kg/injection, schedule: Q01DX001 (ip), vehicle: saline + alcohol): 112 % of control
- T/C (endpoint: median survival time, dose: 80.0 mg/kg/injection, schedule: Q01DX001 (ip), vehicle: saline): 110 % of control

SMILES: O=[N+]([O-])O.[Ga]
- T/C (endpoint: median survival time, dose: 32.0 mg/kg/injection, schedule: Q01DX005 (ip), vehicle: saline): 101 % of control
- T/C (endpoint: median survival time, dose: 64.0 mg/kg/injection, schedule: Q01DX005 (ip), vehicle: saline): 103 % of control and 107 % of control
- T/C [2]: 102 % of control

SMILES: C#CCN(C)/N=N/c1nc[nH]c1C(N)=O
- T/C (endpoint: median survival time, dose: 16.0 mg/kg/injection, schedule: Q01DX005 (ip), vehicle: saline with Tween-80): 118 % of control
- T/C [1]: 124 % of control
- T/C (endpoint: median survival time, dose: 128.0 mg/kg/injection, schedule: Q01DX005 (ip), vehicle: saline with Tween-80): 120 % of control

SMILES: CN(N=O)C(=O)N[C@@H](C=O)[C@@H](O)[C@H](O)[C@H](O)CO
- T/C (endpoint: mean survival time, dose: 50.0 mg/kg/injection, schedule: Q01DX005 (ip), vehicle: saline): 100 % of control
- T/C (endpoint: mean survival time, dose: 50.0 mg/kg/injection, schedule: Q01DX009 (ip), vehicle: saline): 102 % of control
- T/C (endpoint: mean survival time, dose: 100.0 mg/kg/injection, schedule: Q01DX005 (ip), vehicle: saline): 102 % of control
- T/C (endpoint: mean survival time, dose: 100.0 mg/kg/injection, schedule: Q01DX009 (ip), vehicle: saline): 100 % of control
- T/C (endpoint: mean survival time, dose: 200.0 mg/kg/injection, schedule: Q01DX005 (ip), vehicle: saline): 104 % of control
- T/C (endpoint: mean survival time, dose: 200.0 mg/kg/injection, schedule: Q01DX009 (ip), vehicle: saline): 100 % of control
- T/C (endpoint: mean survival time, dose: 400.0 mg/kg/injection, schedule: Q01DX009 (ip), vehicle: saline): 95 % of control
- T/C (endpoint: median survival time, dose: 75.0 mg/kg/injection, schedule: Q01DX001 (ip), vehicle: DMSO): 102 % of control
- T/C (endpoint: median survival time, dose: 75.0 mg/kg/injection, schedule: Q01DX001 (ip), vehicle: other): 103 % of control
- T/C (endpoint: median survival time, dose: 75.0 mg/kg/injection, schedule: Q01DX001 (oral), vehicle: saline): 109 % of control
- T/C (endpoint: median survival time, dose: 150.0 mg/kg/injection, schedule: Q01DX001 (ip), vehicle: DMSO): 114 % of control
- T/C (endpoint: median survival time, dose: 150.0 mg/kg/injection, schedule: Q01DX001 (ip), vehicle: other): 107 % of control
- T/C (endpoint: median survival time, dose: 150.0 mg/kg/injection, schedule: Q01DX001 (oral), vehicle: saline): 100 % of control
- T/C (endpoint: median survival time, dose: 300.0 mg/kg/injection, schedule: Q01DX001 (ip), vehicle: DMSO): 114 % of control
- T/C (endpoint: median survival time, dose: 300.0 mg/kg/injection, schedule: Q01DX001 (ip), vehicle: other): 109 % of control
- T/C (endpoint: median survival time, dose: 300.0 mg/kg/injection, schedule: Q01DX001 (oral), vehicle: saline): 113 % of control
- T/C (endpoint: median survival time, dose: 500.0 mg/kg/injection, schedule: Q01DX001 (ip), vehicle: DMSO): 112 % of control
- T/C (endpoint: median survival time, dose: 500.0 mg/kg/injection, schedule: Q01DX001 (ip), vehicle: other): 103 % of control
- T/C (endpoint: median survival time, dose: 500.0 mg/kg/injection, schedule: Q01DX001 (oral), vehicle: saline): 100 % of control

SMILES: O=C1c2ccccc2C(=O)c2c(NCCNCCO)ccc(NCCNCCO)c21
- T/C (endpoint: median survival time, dose: 4.0 mg/kg/injection, schedule: Q01DX009 (ip), vehicle: saline with Tween-80): 118 % of control
- T/C (endpoint: median survival time, dose: 4.0 mg/kg/injection, schedule: Q01DX009 (ip), vehicle: saline): 102 % of control and 111 % of control
- T/C (endpoint: median survival time, dose: 8.0 mg/kg/injection, schedule: Q01DX009 (ip), vehicle: saline): 119 % of control and 102 % of control
- T/C (endpoint: median survival time, dose: 16.0 mg/kg/injection, schedule: Q01DX009 (ip), vehicle: saline): 121 % of control and 124 % of control
- T/C (endpoint: median survival time, dose: 32.0 mg/kg/injection, schedule: Q01DX009 (ip), vehicle: saline with Tween-80): 97 % of control
- T/C (endpoint: median survival time, dose: 32.0 mg/kg/injection, schedule: Q01DX009 (ip), vehicle: saline): 103 % of control
